The results in this text go back to patent US11351218B2, “Composition for preventing or treating glioblastoma comprising Platycodon grandiflorum A. De Candolle, Scutellaria baicalensis, Phellodendron amurense Ruprecht or Rubus coreanus” (University-Industry Cooperation Group of Kyung Hee …, priority 2019, dated 2022).

The subject of assay [1] is A549, H358, MCF7, HT29 and HepG2 cells. As to the kind of experiment: Immunoblot of LC3B and SQSTM1 in several cancer cell lines. Type of assay: cell-based. The settings on record: 24 hours, dose-dependent, all cancer cells tested. Here is the method:
After treatment with indicated concentrations of PD or PG for 24 hours, the protein levels of LC3B and SQSTM1 were detected by immunoblot analysis in several cancer cell lines including A549 and H358 (lung cancer), MCF7 (breast cancer), HT29 (colon cancer), and HepG2 (liver cancer). GAPDH was used as a loading control.
(§1) Cells treated with the concentrations and materials described in FIGS. 1-3B, 7, 8, 10, 13, 16, 18, and 20 were lysed in buffer containing 20 mM Tris-HCl (pH 7.5), 150 mM NaCl, 1 mM EDTA, 1 mM Na2EDTA, 1 mM EGTA, 1% NP-40, 1% sodium deoxycholate, 1 mM Na3VO4, 1 mM MPI, 1 mM PMSF, and PI cocktails for 15 to 20 minutes on ice. Cell lysates were separated by SDS-PAGE and transferred to nitrocellulose membranes. Immunodetection was performed with the following primary antibodies: rabbit anti-LC3B, rabbit anti-cathepsin B, rabbit-anti GAPDH (Cell Signaling Technology, Danvers, Mass.), mouse anti-SQSTM1/p62, and goat anti-cathepsin D (Santa CruzKPL, Gaithersburg, Md., USA) were incubated at room temperature for 1 hour. The protein bands were detected with ECL western Blotting Substrate (Thermo Fisher Scientific, Waltham, Mass., USA).
In these studies, they were carried out to examine the accumulation of LC3B-II without checking p62 levels upon PD treatment and conclusions were drawn that PD acts as an inducer of autophagic cell death in these cancer cells. […]
For orientation: In western blotting, separated proteins are transferred to a membrane and probed.

The subject of another assay is U87MG cells. As to the kind of experiment: GFP-LC3B puncta assay (confocal microscopy), U87MG cells. It counts as cell-based, human. The settings on record: 10 μM PD, 24 hours. On the procedure: The cells transiently expressing GFP-LC3 (green) were treated with DMSO or PD (10 μM) for 24 hours and analyzed by confocal microscopy. Nuclei were stained with DAPI (blue). Quantification shown on the right graph represents mean GFP-LC3B puncta per cells from three independent experiments±SD.
Cultured cells seeded in plates with microscope coverslips were transfected with a pGFP-LC3B plasmid using Lipofectamine 3000 (Thermo Fisher Scientific) according to the manufacturer's instructions. After the transfection, the cells were fixed with 4% paraformaldehyde (PFA) in phosphate-buffered saline (PBS) at room temperature for 10 minutes. The images were examined under a laser confocal microscope (Zeiss, Oberkochen, Baden-Wurttemberg, Germany).
To confirm the western blot data, the LC3B accumulation in GBM cells was monitored using a confocal microscope. Both U87MG and U373MG cells transfected with a green fluorescent protein (GFP)-tagged LC3 expression plasmid were treated with 10 μM PD for 24 hours and examined under a confocal microscope.

Assay [2] concerns PARP, caspase-3, BCL-2 and BAX. As to the kind of experiment: Immunoblot of apoptosis markers (PARP, caspase-3, BCL-2, BAX) in GBM cells. Type of assay: cell-based, human. The settings on record: PD, 24 hours. Here is the method:
FIGS. 7A and 7B show the results that PD induces non-apoptotic cell death. […] GAPDH was used as a loading control. […] Data shown represent the means of quintuplicate measurements which were repeated three times. The results are presented as a percentage of control (means±SD).
as §1
Therefore, whether PD-mediated autophagy inhibition promotes apoptosis in GBM cells was examined by western blot analysis. Activation of caspase-3 and cleavage of its substrate, PARP, are hallmarks of apoptosis. […]

For a further assay, the system named is cathepsin B and D. The experiment in a line: Immunoblot of cathepsin B and D processing in GBM cells. The settings on record: PD 5 μM and 10 μM, 48 hours. Type of assay: cell-based, human. Here is the method:
Immunoblot analyses for the processing of endogenous CTSB and CTSD are shown (upper, immature form/lower, mature form of CTSB and CTSD). GAPDH was used as a loading control.
as §1
To confirm whether PD functions as an autophagy inhibitor, the effects of PD on lysosomal proteases, cathepsin B and D, were examined Autophagy is a lysosome-mediated and self-degradative process that requires lysosomal cysteine proteases known as cathepsins. Since pro-cathepsins are cleaved into a mature form in lysosomes, the 33 kD active cleaved form of cathepsins has been commonly used as a marker for lysosomal activity. As can be confirmed in FIG. 13, while the mature forms of cathepsin B and D proteins were decreased, immature forms of those protein were increased after PD treatment in U87MG and U373MG cells, implying that PD suppresses a lysosomal function by downregulating the lysosomal proteolytic activity.

Another assay has as its system U87MG and U373MG cells. The experiment in a line: BODIPY FL LDL uptake assay, GBM cells. The settings on record: PD 10 μM 24 hours, BODIPY FL LDL 1 hour. It counts as cell-based, human. On the procedure:
Cells were treated with DMSO, PD (10 μM), or U18 (1 μM) for 24 hours and subsequently loaded with BODIPY™ FL LDL. BODIPY-LDL uptake was visualized by confocal microscopy. Nuclei were stained with DAPI (blue). Quantification shown on the right graph represents a relative fold change from three independent experiments±SD.
Cells seeded on coverslips were treated with the materials and then the culture medium was replaced with BODIPY™ FL LDL (Thermo Fisher Scientific) at a working concentration of 5 μg/mL in a medium. The cells were additionally incubated at 37° C. for 1 hour. The degree of LDL uptake was measured using a Zeiss laser confocal microscope.
Based on the previous study results of the present inventors that PD increases cell surface LDLR expression and accumulate cholesterol within lysosomes, whether PD can increase the uptake of exogenous LDL was examined Cells pretreated with PD or U18666A were incubated with BODIPY FL-labeled LDL particles for 1 hour and the LDL uptake was observed by a confocal microscope. Upon analysis of these cells, it was observed that PD caused about a 6-fold increase in LDL uptake and it was a level similar to that detected in the U18666A-treated cells.

Turning to `C[C@@H]1O[C@@H](O[C@H]2[C@H](OC(=O)[C@]34CCC(C)(C)C[C@H]3C3=CC[C@@H]5[C@@]6(C)C[C@H](O)[C@H](O[C@@H]7O[C@H](CO)[C@@H](O)[C@H](O)[C@H]7O)C(CO)(CO)[C@@H]6CC[C@@]5(C)[C@]3(C)C[C@H]4O)OC[C@H](O)[C@@H]2O)[C@H](O)[C@H](O)[C@H]1O[C@@H]1OC[C@@H](O)[C@H](O[C@@H]2OC[C@](O)(CO)[C@H]2O)[C@H]1O` [PD, platycodin D], the “level of p62 together with LC3-II” value in assay [1] was “enhanced level”. Besides, in the assay on U87MG cells, the “fold increase of GFP-LC3 puncta per cell vs DMSO” value was found to be 10.1 fold. Further, the “GFP-LC3 puncta per cell” value in the assay on U87MG cells (mean±SD) is listed as 38.03±5.75. In assay [2], the “caspase-3 activation and PARP cleavage” value was “no significant induction”; the “expressions of Bcl2 and BAX” value is “not changed”. For the same molecule, in the assay on cathepsin B and D, the “immature forms of cathepsin B and D proteins” value is reported as “increased”; the “mature forms of cathepsin B and D proteins” value was “decreased”. Further, in the assay with U87MG and U373MG cells, the “increase in LDL uptake” value was roughly 6 fold.
